Key:
[1] = tested on: human cell line NCI-H1770 xenograft; experiment: N-Myc-driven mouse xenograft model, NCI-H1770, compound 210 oral; type: in vivo
[2] = tested on: patient-derived xenografts; experiment: In vivo mouse patient-derived xenograft experiment, survival, Compound 345
Description: FIGS. 14A and 14B: In vivo mouse patient-derived xenograft experiment.

GSPT1 = GSPT1 (Homo sapiens, UniProt P15170+Q96SW2); experiment: GSPT1 degradation by Compound 345 in cancer cell lines (western blot); type: cell-based; design: endogenous in cells; host or cells: MM1 S (ATCC CRL-2974)
Chain of GSPT1 (P15170 whole entry): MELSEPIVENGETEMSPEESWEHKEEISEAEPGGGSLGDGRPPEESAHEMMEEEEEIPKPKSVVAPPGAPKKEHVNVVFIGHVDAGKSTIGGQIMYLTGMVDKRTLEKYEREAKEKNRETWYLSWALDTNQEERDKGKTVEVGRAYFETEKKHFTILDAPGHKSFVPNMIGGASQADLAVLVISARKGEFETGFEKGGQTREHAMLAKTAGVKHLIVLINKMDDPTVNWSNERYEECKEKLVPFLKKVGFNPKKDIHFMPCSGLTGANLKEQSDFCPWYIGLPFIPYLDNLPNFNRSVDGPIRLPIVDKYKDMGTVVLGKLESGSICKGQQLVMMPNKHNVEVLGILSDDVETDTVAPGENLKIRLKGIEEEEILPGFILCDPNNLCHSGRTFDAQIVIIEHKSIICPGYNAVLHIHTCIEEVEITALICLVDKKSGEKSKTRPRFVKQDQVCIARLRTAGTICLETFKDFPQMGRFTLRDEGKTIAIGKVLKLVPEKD
Chain of GSPT1 (Q96SW2 whole entry): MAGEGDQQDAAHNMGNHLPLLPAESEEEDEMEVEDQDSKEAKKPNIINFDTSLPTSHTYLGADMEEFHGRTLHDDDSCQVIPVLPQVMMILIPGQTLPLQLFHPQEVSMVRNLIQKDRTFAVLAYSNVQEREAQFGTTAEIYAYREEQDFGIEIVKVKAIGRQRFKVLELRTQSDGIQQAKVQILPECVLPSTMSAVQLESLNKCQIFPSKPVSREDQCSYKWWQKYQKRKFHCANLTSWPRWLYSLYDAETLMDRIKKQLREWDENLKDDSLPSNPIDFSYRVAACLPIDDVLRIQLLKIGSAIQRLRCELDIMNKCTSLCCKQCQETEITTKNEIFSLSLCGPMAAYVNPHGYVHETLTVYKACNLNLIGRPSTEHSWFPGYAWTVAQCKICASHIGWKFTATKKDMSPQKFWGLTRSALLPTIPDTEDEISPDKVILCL
Chain of GSPT1 (Q16531 whole entry partner): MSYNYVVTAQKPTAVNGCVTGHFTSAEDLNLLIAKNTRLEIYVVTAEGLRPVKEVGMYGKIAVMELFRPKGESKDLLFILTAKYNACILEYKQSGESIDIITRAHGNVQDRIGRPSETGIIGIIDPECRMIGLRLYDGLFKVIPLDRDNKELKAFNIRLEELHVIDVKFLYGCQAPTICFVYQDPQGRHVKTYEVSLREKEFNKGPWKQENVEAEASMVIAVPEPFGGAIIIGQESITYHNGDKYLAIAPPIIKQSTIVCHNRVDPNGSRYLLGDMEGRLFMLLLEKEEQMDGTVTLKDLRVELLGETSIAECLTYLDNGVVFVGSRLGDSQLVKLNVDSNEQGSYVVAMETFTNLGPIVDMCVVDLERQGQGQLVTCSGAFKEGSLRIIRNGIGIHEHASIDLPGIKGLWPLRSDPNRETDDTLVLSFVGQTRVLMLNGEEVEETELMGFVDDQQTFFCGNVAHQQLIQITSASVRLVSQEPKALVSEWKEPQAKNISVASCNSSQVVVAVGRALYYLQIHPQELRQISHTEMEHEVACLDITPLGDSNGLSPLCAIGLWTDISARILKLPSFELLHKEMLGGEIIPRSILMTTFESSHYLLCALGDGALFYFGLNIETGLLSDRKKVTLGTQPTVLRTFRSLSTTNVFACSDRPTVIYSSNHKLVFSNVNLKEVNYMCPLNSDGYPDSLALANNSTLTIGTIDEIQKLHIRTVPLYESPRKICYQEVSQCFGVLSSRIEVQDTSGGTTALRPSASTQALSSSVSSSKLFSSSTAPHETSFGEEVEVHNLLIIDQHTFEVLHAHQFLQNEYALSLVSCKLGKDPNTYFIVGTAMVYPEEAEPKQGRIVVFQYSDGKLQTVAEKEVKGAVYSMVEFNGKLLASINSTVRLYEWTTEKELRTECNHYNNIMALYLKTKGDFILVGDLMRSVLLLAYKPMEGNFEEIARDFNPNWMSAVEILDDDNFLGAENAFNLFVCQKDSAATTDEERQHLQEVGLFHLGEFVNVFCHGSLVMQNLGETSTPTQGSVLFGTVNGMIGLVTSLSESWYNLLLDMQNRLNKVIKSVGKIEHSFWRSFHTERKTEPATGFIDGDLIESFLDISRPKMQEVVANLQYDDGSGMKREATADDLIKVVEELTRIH
Procedure: NCI-H1155 and ABC-1 were taken as representative of N-Myc positive NSCLC. NCI-H2023 and NCI-H441 as of N-Myc low representatives. 10A: western blotting analysis performed after 6 (NCI-H1155 and ABC-1) or 24 hr (NCI-H2023 and NCI-H441) posttreatment. […] 10B: corresponding densitometry analyses of GSPT1 normalized to GAPDH. DC50 and Dmax as indicated.
NCI-H1155 and ABC-1 were taken as representative of N-Myc high NSCLC. NCI-H2023 and NCI-H441 as of N-Myc low representatives. Left: densitometry analysis of GSPT1 normalized to GAPDH from western blotting following treatment with Compound 345 (as indicated). Right: 72 hr viability assay following treatment with Compound 345 as assessed by Cell Titer Glo. For both the GSPT1 expression plot and the cell viability plot, two Myc-driven cancer cell lines are represented by upright triangles and diamonds. Two non-Myc-driven cancer cell lines are represented by upside down triangles and circles.
NCI-H1155 and NCI-H2023 were taken as representative of N-Myc high and low NSCLC. 12A: western blot analysis probing for GSPT1 and N-Myc following treatment with Compound 345 (as indicated). Tubulin was used as a loading control. N-Myc could not be detected by western blotting in the NCI-H2023 line. 12B: Single-sample gene set enrichment analysis (ssGSEA) results for a Myc target gene set at 6 hours (left) and 24 hours (right) after treatment. ssGSEA scores were normalized to DMSOs for each cell line and averaged for three replicates. Error bars denote+/−1 s.d. across replicates.
NCI-H1836 and NCI-H1876 were taken as two representatives of L-Myc high SCLC. Western blot analysis probing for GSPT1 and L-Myc following treatment with Compound 345 as indicated. GAPDH was used as a loading control.
FIGS. 16A, 16B and 16C: Activity of Compound 345 in the c-Myc high multiple myeloma MM1S cell line. […] GAPDH was used as a loading control. […] Lenalidomide was used as a benchmark. 16C: Antiproliferative activity of Compound 345 (as indicated) following treatment with Compound 345 for 72 hr as assessed by Cell Titer Glo assay.
(§1) FIGS. 18A, 18B and 18C: Activity of Compound 345 in the c-Myc high WSU-DLCL2 lymphoma cell line. […] GAPDH was used as a loading control. 18B: Antiproliferative activity of Compound 345 (as indicated) following treatment with Compound 345 for 72 hr as assessed by Cell Titer Glo assay. […] Mice were dosed daily PO with vehicle or Compound 345 at 3, 10 mg/kg (as indicated). Tumor volumes were measured twice weekly. X-axis represents the number of days for treatment duration; y-axis represents mean tumor volume (in mm^3)±SEM. CHOP was used as a positive control for this model. Drug-free vehicle is represented by black circles; CHOP combination represented by light squares; Compound 345 3 mg/kg represented by triangles; Compound 345 10 mg/kg represented by dark squares.
as §1, with “19A, 19B,” for “18A, 18B”, “19C:” for “18C:”, “DOHH-2” for “WSU-DLCL2”, “19B:” for “18B:”, “model.” for “model. Drug-free vehicle is represented by black circles; CHOP combination represented by light squares; Compound 345 3 mg/kg represented by triangles; Compound 345 10 mg/kg represented by dark squares.”
Western blot analysis performed 24 hr post treatment initiation. GAPDH was used as a loading control. GSPT1 DC50 and Dmax as indicated.

Cc1ccc(NC(=O)OCc2ccc3c(c2)C(=O)N(C2CCC(=O)NC2=O)C3)cc1Cl (stereo not drawn) [Compound 210]
tumor size ([1]; 3 mg/kg once daily): tumor size decreased and remained so until the end of the study
tumor size ([1]; 6 mg/kg, five days on and nine days off): tumor size decreased and remained so until the end of the study
body weight ([1]; oral administration): no body weight loss observed
tumor growth ([1]; oral administration): tumor growth inhibition

O=C1CCC(N2Cc3ccc(COC(=O)Nc4cc(OC(F)(F)F)ccc4F)cc3C2=O)C(=O)N1 (stereo not drawn) [Compound 345, (2-(2,6-dioxopiperidin-3-yl)-3-oxoisoindolin-5-yl)methyl(2-fluoro-5-(trifluoromethoxy)phenyl)carbamate]
survival ([2]; biomarker negative patient-derived xenografts): but not in the biomarker negative patient-derived xenografts
survival ([2]; biomarker positive (high N-Myc or L-Myc mRNA expression) patient-derived xenografts): significantly prolonged survival
GSPT1 level (GSPT1; DOHH-2 lymphoma cell line, 24 hr post treatment): Degradation of GSPT1
GSPT1 level (GSPT1; MM1S multiple myeloma cell line, 24 hr post treatment): Degradation of GSPT1
GSPT1 level (GSPT1; NSCLC lines NCI-H1155, ABC-1 (6 hr), NCI-H2023, NCI-H441 (24 hr)): Induced-degradation of GSPT1
GSPT1 level, timecourse (GSPT1; NSCLC lines NCI-H1155 and NCI-H2023): degradation of GSPT1
GSPT1 level, timecourse (GSPT1; SCLC lines NCI-H1836 and NCI-H1876 (L-Myc high)): degradation of GSPT1
GSPT1 level (GSPT1; WSU-DLCL2 lymphoma cell line, 24 hr post treatment): Degradation of GSPT1
